Reference: ChEMBL document CHEMBL4190382, “Targeting lysine specific demethylase 4A (KDM4A) tandem TUDOR domain - A fragment based approach” (Bioorg Med Chem Lett, 2018)
Substitutions are numbered along the chain they refer to. pKd: −log10 of the molar value. The source made the active and inactive calls. The rule behind the calls is not given here.

Legend:
[1] = biological target: T1, Lysine-specific demethylase 4A (Homo sapiens, UniProt O75164); test: Binding affinity to thrombin cleavable N-terminal 6His tagged and 13C-IVLM labeled human KDM4A tandem TUDOR domain (897 to 1011 residues) expressed in Escherichia coli BL21(DE3)-T1R by ITC method
T1 sequence (O75164 whole entry): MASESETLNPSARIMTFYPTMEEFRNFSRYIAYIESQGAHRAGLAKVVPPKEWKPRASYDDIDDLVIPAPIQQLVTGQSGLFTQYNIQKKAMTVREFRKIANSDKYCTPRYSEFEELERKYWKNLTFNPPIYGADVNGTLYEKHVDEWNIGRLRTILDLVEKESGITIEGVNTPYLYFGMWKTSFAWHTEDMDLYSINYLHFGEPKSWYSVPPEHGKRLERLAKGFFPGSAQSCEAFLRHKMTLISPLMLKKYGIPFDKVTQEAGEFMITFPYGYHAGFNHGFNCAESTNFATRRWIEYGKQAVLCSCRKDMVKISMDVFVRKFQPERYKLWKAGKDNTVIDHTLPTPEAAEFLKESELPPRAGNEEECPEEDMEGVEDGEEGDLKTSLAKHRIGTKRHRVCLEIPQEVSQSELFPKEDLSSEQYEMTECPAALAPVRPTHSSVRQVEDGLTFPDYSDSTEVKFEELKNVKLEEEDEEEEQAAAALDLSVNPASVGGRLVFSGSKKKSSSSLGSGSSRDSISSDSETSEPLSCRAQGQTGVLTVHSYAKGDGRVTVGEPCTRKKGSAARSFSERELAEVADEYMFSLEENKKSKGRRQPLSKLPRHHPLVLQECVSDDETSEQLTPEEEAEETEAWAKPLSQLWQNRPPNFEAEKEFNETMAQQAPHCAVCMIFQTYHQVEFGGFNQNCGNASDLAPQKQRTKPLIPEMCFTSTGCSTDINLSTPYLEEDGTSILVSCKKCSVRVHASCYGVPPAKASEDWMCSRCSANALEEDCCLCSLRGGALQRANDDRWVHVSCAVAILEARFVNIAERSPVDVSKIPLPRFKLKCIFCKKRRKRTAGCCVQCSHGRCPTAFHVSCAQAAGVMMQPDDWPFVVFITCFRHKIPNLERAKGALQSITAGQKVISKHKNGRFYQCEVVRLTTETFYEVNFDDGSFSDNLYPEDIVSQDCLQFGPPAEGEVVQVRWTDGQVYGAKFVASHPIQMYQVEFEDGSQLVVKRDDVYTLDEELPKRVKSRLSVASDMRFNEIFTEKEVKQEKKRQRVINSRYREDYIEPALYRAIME

[2] = biological target: T2, E3 ubiquitin-protein ligase UHRF1 (Homo sapiens, UniProt Q96T88); test: Binding affinity to 6His-tagged and human UHRF1 tandem TUDOR domain (126 to 285 residues) expressed in Escherichia coli BL21(DE3)-T1R by ITC method
T2 sequence (Q96T88 whole entry): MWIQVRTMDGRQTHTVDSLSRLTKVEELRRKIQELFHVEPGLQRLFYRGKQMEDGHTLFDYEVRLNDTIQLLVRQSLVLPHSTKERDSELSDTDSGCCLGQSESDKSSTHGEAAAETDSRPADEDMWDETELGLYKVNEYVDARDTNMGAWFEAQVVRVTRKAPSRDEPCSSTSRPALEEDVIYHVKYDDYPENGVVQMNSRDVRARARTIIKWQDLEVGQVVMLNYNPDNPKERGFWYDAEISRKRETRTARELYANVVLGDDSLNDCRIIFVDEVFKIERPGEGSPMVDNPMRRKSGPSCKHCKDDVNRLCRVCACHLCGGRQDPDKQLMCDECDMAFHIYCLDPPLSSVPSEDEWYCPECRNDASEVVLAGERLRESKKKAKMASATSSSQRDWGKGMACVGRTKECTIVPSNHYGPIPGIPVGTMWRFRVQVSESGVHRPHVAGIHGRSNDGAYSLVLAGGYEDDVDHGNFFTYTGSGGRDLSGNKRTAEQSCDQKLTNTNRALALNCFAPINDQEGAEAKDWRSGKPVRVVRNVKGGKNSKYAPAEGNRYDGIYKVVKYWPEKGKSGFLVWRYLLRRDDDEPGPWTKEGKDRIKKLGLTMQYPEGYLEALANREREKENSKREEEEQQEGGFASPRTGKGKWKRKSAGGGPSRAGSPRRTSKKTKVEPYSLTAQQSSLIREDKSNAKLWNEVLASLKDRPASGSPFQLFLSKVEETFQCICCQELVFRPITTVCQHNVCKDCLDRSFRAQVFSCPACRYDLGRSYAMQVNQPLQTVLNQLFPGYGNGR

[3] = tested on: T3, Lysine-specific demethylase 4A (Homo sapiens), O75164 [F932A]; test: Binding affinity to thrombin cleavable N-terminal 6His tagged and 13C-IVLM labeled human KDM4A tandem TUDOR domain (897 to 1011 residues) F932A mutant expressed in Escherichia coli BL21(DE3)-T1R by ITC method
T3 sequence (whole entry): T1 sequence (O75164 whole entry) with F932A

- pKd [1]: 4.09
- Kd [2]: Not Active
- Activity [3]: inactive
SMILES: CN(C)C[C@H]1C2CCC(c3ccccc3)(C2)[C@H]1O (stereo partly drawn)
